As to `CCc1cc(C)c(-c2cccc(C3=Nc4cc(C)c(C(F)(F)F)cc4NC(=O)C3)c2)cn1` [Example 254, 4-[3-(6-Ethyl-4-methyl-pyridin-3-yl)-phenyl]-7-methyl-8-trifluoromethyl-1,3-dihydro-benzo[b][1,4]diazepin-2-one], the melting point – broadly, the temperature, or range, at which the solid turns liquid – was 200 °C.

Molecule `CCOc1cc2c(cc1C(F)(F)F)NC(=O)CC(c1cccc(-c3cnc(CC)cc3C)c1)=N2` [Example 255, 7-Ethoxy-4-[3-(6-ethyl-4-methyl-pyridin-3-yl)-phenyl]-8-trifluoromethyl-1,3-dihydro-benzo[b][1,4]diazepin-2-one] showed a melting point of 205 °C. Next, `CCc1cc(C)c(-c2cccc(C3=Nc4cc(OCC(F)(F)F)c(C(F)(F)F)cc4NC(=O)C3)c2)cn1` [Example 256, 4-[3-(6-Ethyl-4-methyl-pyridin-3-yl)-phenyl]-7-(2,2,2-trifluoro-ethoxy)-8-trifluoromethyl-1,3-dihydro-benzo[b][1,4]diazepin-2-one]: 145 to 160 °C. In turn, `Cc1cc(-c2cccc(C3=Nc4cc(C)c(C(F)(F)F)cc4NC(=O)C3)c2)cc(C2CC2)n1` [Example 257, 4-[3-(2-Cyclopropyl-6-methyl-pyridin-4-yl)-phenyl]-7-methyl-8-trifluoromethyl-1,3-dihydro-benzo[b][1,4]diazepin-2-one] registered a melting point of 257 °C.

Regarding `CCOc1cc2c(cc1C(F)(F)F)NC(=O)CC(c1cccc(-c3cc(C)nc(C4CC4)c3)c1)=N2` [Example 258, 4-[3-(2-Cyclopropyl-6-methyl-pyridin-4-yl)-phenyl]-7-ethoxy-8-trifluoromethyl-1,3-dihydro-benzo[b][1,4]diazepin-2-one], the melting point was determined as 232 °C.

In turn, `Cc1cc(-c2cccc(C3=Nc4cc(OCC(F)(F)F)c(C(F)(F)F)cc4NC(=O)C3)c2)cc(C2CC2)n1` [Example 259, 4-[3-(2-Cyclopropyl-6-methyl-pyridin-4-yl)-phenyl]-7-(2,2,2-trifluoro-ethoxy)-8-trifluoromethyl-1,3-dihydro-benzo[b][1,4]diazepin-2-one] had a melting point of 200 °C.

`Cc1cc2c(cc1C(F)(F)F)NC(=O)CC(c1cccc(-c3cccnc3C)c1)=N2` [Example 260, 7-Methyl-4-[3-(2-methyl-pyridin-3-yl)-phenyl]-8-trifluoromethyl-1,3-dihydro-benzo[b][1,4]diazepin-2-one] gave a melting point of 246 °C. In the case of `Cc1cc(-c2cccc(C3=Nc4cc(CO)c(C(F)(F)F)cc4NC(=O)C3)c2)ccn1` [Example 261, 7-Hydroxymethyl-4-[3-(2-methyl-pyridin-4-yl)-phenyl]-8-trifluoromethyl-1,3-dihydro-benzo[b][1,4]diazepin-2-one] it was 218 °C; in that of `Cc1cc2c(cc1C(F)(F)F)NC(=O)CC(c1cccc(-c3ccnc(CC(C)C)c3)c1)=N2` [Example 262, 4-[3-(2-Isobutyl-pyridin-4-yl)-phenyl]-7-methyl-8-trifluoromethyl-1,3-dihydro benzo[b][1,4]diazepin-2-one], 209 °C; in that of `Cc1cc2c(cc1Cl)NC(=O)CC(c1cccc(-c3ccnc(C(F)(F)F)c3)c1)=N2` [Example 264, 8-Chloro-7-methyl-4-[3-(2-trifluoromethyl-pyridin-4-yl)-phenyl]-1,3-dihydro-benzo[b][1,4]diazepin-2-one], 247 °C. In the case of `Cc1cc2c(cc1C(F)(F)F)NC(=O)CC(c1cccc(-c3ccnc(C(F)(F)F)c3)c1)=N2` [Example 265, 7-Methyl-8-trifluoromethyl-4-[3-(2-trifluoromethyl-pyridin-4-yl)-phenyl]-1,3-dihydro-benzo[b][1,4]diazepin-2-one] it was 247 °C. The molecule `O=C1CC(c2cccc(-c3ccnc(C(F)(F)F)c3)c2)=Nc2cc(Cl)c(C(F)(F)F)cc2N1` [Example 266, 7-Chloro-8-trifluoromethyl-4-[3-(2-trifluoromethyl-pyridin-4-yl)-phenyl]-1,3-dihydro-benzo[b][1,4]diazepin-2-one] gave a melting point of 229 °C.

`O=C1CC(c2cccc(-c3ccnc(C(F)(F)F)c3)c2)=Nc2cc(Cl)c(Cl)cc2N1` [Example 267, 7,8-Dichloro-4-[3-(2-trifluoromethyl-pyridin-4-yl)-phenyl]-1,3-dihydro-benzo[b][1,4]diazepin-2-one] returned a melting point of 226 °C. In the case of `O=C1CC(c2cccc(-c3ccnc(C(F)(F)F)c3)c2)=Nc2cc(OCC(F)(F)F)c(C(F)(F)F)cc2N1` [Example 268, 7-(2,2,2-Trifluoro-ethoxy)-8-trifluoromethyl-4-[3-(2-trifluoromethyl-pyridin-4-yl)-phenyl]-1,3-dihydro-benzo[b][1,4]diazepin-2-one] it was 220 °C; in that of `CCOc1cc2c(cc1C(F)(F)F)NC(=O)CC(c1cccc(-c3ccnc(C(F)(F)F)c3)c1)=N2` [Example 269, 7-Ethoxy-8-trifluoromethyl-4-[3-(2-trifluoromethyl-pyridin-4-yl)-phenyl]-1,3-dihydro-benzo[b][1,4]diazepin-2-one], 251 °C; in that of `Cc1cc2c(cc1Cl)NC(=O)CC(c1cccc(-c3ccnc(C(C)C)c3)c1)=N2` [Example 270, 8-Chloro-4-[3-(2-isopropyl-pyridin-4-yl)-phenyl]-7-methyl-1,3-dihydro-benzo[b][1,4]diazepin-2-one], 196 °C. Regarding `Cc1cc2c(cc1C(F)(F)F)NC(=O)CC(c1cccc(-c3ccnc(C(C)C)c3)c1)=N2` [Example 271, 4-[3-(2-Isopropyl-pyridin-4-yl)-phenyl]-7-methyl-8-trifluoromethyl-1,3-dihydro benzo[b][1,4]diazepin-2-one], the melting point was found to be 205 °C. With `CC(C)c1cc(-c2cccc(C3=Nc4ccc(C(F)(F)F)cc4NC(=O)C3)c2)ccn1` [Example 272, 4-[3-(2-Isopropyl-pyridin-4-yl)-phenyl]-8-trifluoromethyl-1,3-dihydro benzo[b][1,4]diazepin-2-one], the melting point worked out at 168 °C.

For `CC(C)c1cc(-c2cccc(C3=Nc4cc(Cl)c(C(F)(F)F)cc4NC(=O)C3)c2)ccn1` [Example 273, 7-Chloro-4-[3-(2-isopropyl-pyridin-4-yl)-phenyl]-8-trifluoromethyl-1,3-dihydro benzo[b][1,4]diazepin-2-one], the melting point came out at 200 °C. In the case of `CC(C)c1cc(-c2cccc(C3=Nc4cc(Cl)c(Cl)cc4NC(=O)C3)c2)ccn1` [Example 274, 7,8-Dichloro-4-[3-(2-isopropyl-pyridin-4-yl)-phenyl]-1,3-dihydro-benzo[b][1,4]diazepin-2-one] it was 195 °C; in that of `CC(C)c1cc(-c2cccc(C3=Nc4cc(OCC(F)(F)F)c(C(F)(F)F)cc4NC(=O)C3)c2)ccn1` [Example 275, 4-[3-(2-Isopropyl-pyridin-4-yl)-phenyl]-7-(2,2,2-trifluoro-ethoxy)-8-trifluoromethyl-1,3-dihydro-benzo[b][1,4]diazepin-2-one], 202 °C.

Molecule `CCOc1cc2c(cc1C(F)(F)F)NC(=O)CC(c1cccc(-c3ccnc(C(C)C)c3)c1)=N2` [Example 276, 4-[3-(2-Isopropyl-pyridin-4-yl)-phenyl]-7-ethoxy-8-trifluoromethyl-1,3-dihydro-benzo[b][1,4]diazepin-2-one] had a melting point of 217 °C. `Cc1cc2c(cc1Cl)NC(=O)CC(c1cccc(-c3ccnc(CC(C)C)c3)c1)=N2` [Example 277, 8-Chloro-4-[3-(2-isobutyl-pyridin-4-yl)-phenyl]-7-methyl-1,3-dihydro-benzo[b][1,4]diazepin-2-one]: the melting point is 198 °C.

`CC(C)Cc1cc(-c2cccc(C3=Nc4cc(Cl)c(C(F)(F)F)cc4NC(=O)C3)c2)ccn1` [Example 278, 7-Chloro-4-[3-(2-isobutyl-pyridin-4-yl)-phenyl]-8-trifluoromethyl-1,3-dihydro benzo[b][1,4]diazepin-2-one] gave a melting point of 213 °C. In turn, `CC(C)Cc1cc(-c2cccc(C3=Nc4cc(Cl)c(Cl)cc4NC(=O)C3)c2)ccn1` [Example 279, 7,8-Dichloro-4-[3-(2-isobutyl-pyridin-4-yl)-phenyl]-1,3-dihydro-benzo[b][1,4]diazepin-2-one] came in with a melting point of 204 °C. `CCOc1cc2c(cc1C(F)(F)F)NC(=O)CC(c1cccc(-c3ccnc(CC(C)C)c3)c1)=N2` [Example 280, 4-[3-(2-Isobutyl-pyridin-4-yl)-phenyl]-7-ethoxy-8-trifluoromethyl-1,3-dihydro-benzo[b][1,4]diazepin-2-one] had a melting point of 203 °C. On to `CC(C)Cc1cc(-c2cccc(C3=Nc4ccc(C(F)(F)F)cc4NC(=O)C3)c2)ccn1` [Example 281, 4-[3-(2-Isobutyl-pyridin-4-yl)-phenyl]-8-trifluoromethyl-1,3-dihydro benzo[b][1,4]diazepin-2-one], for which the melting point stood at 181 °C. Next, `Cc1cc2c(cc1Cl)NC(=O)CC(c1cccc(-c3ccnc(CO)c3)c1)=N2` [Example 282, 8-Chloro-4-[3-(2-hydroxymethyl-pyridin-4-yl)-phenyl]-7-methyl-1,3-dihydro-benzo[b][1,4]diazepin-2-one]: 234 °C; `O=C1CC(c2cccc(-c3ccnc(CO)c3)c2)=Nc2cc(Cl)c(C(F)(F)F)cc2N1` [Example 284, 7-Chloro-4-[3-(2-hydroxymethyl-pyridin-4-yl)-phenyl]-8-trifluoromethyl-1,3-dihydro benzo[b][1,4]diazepin-2-one]: 199 °C. As for `O=C1CC(c2cccc(-c3ccnc(CO)c3)c2)=Nc2cc(Cl)c(Cl)cc2N1` [Example 285, 7,8-Dichloro-4-[3-(2-hydroxymethyl-pyridin-4-yl)-phenyl]-1,3-dihydro-benzo[b][1,4]diazepin-2-one], the melting point worked out at 224 °C.

Regarding `O=C1CC(c2cccc(-c3ccnc(CO)c3)c2)=Nc2cc(OCC(F)(F)F)c(C(F)(F)F)cc2N1` [Example 286, 4-[3-(2-Hydroxymethyl-pyridin-4-yl)-phenyl]-7-(2,2,2-trifluoro-ethoxy)-8-trifluoromethyl-1,3-dihydro-benzo[b][1,4]diazepin-2-one], the melting point amounted to 201 °C.

In turn, `CCOc1cc2c(cc1C(F)(F)F)NC(=O)CC(c1cccc(-c3ccnc(CO)c3)c1)=N2` [Example 287, 4-[3-(2-Hydroxymethyl-pyridin-4-yl)-phenyl]-7-ethoxy-8-trifluoromethyl-1,3-dihydro-benzo[b][1,4]diazepin-2-one] came in with a melting point of 216 °C.

These data come from patent publication US6949542B2, “Dihydro-benzo[b][1,4]diazepin-2-one derivatives” (Hoffman-La Roche Inc., priority 2002, dated 2005).
